Assay results from PMC12521730, “Quantitative dual-isotope preclinical SPECT/CT imaging and biodistribution of the mercury-197m/g theranostic pair with [^197m/gHg]HgCl2 and a [^197m/gHg]Hg-tetrathiol complex as a platform for radiopharmaceutical development” (EJNMMI Radiopharmacy and Chemistry, 2025).

Assay: Ex vivo biodistribution (gamma counter)
Format: in vivo, healthy male C57BL/6 mice
Conditions: Hg-197m, 2 h post administration
Method: For animal injection, the tracer was prepared at high molar activity. Radiolabeling of H4Tetrathiol (10^–2 M in DMSO; 40 μL for imaging, 20 μL for bioD) (or DMSO, for [^197m/gHg]HgCl2 mice) with [^197m/gHg]HgCl2 (imaging: 26.7 MBq total m + g, 62 μL; bioD: 13.04 MBq total m + g, 31 μL) was performed in a mixture of ammonium acetate buffer (1 M; pH 7; 198 μL for imaging or 149 μL for bioD) and 6 M NaOH (72 μL or 38 μL required to achieve a pH of 7.5 after addition of activity, for imaging or BioD labeling, respectively). The reaction was allowed to stand for 1 h at 37 °C and quantitative (> 99%) non-isolated percentage radiochemical yield (%RCY) was confirmed via the iTLC methods mentioned above. Further, 100 µL of the reaction was diluted with 50 µL of PBS Tween-20 (0.01 M sodium phosphate, 0.15 M NaCl, 0.05% Tween-20) for imaging mice, or 50 µL of the reaction was diluted with 100 µL of PBS Tween-20 for BioD mice. The tracers were prepared immediately before injection to avoid radiolysis and minimize the tracer loss to any surfaces due to its lipophilicity. The injected doses of each isomer, ^197mHg and ^197gHg, were quantified by measuring an aliquot of known volume of each tracer preparation via HPGe gamma spectroscopy and decay corrected for time of injection using the Eqs. (1) and (2).
The study was conducted in compliance with the guidelines set by the Canadian Council on Animal Care (CCAC) and approved by the Animal Care Committee (ACC) at the University of British Columbia (A20-0132). A total of eight healthy male C57BL/6 mice weighing approximately 30 g for group 1 and 25 g for group 2 were used in the study. The mice were divided into two experimental groups: group 1 (n = 4) received free [^197m/gHg]HgCl2, while group 2 (n = 4) received [^197m/gHg]Hg-Tetrathiol. Within each group, one mouse was allocated for imaging, while the rest were designated for ex vivo biodistribution analysis. For SPECT imaging, the designated mice were anesthetized using isoflurane via a precision vaporizer. […] Once anesthetized, each imaging mouse received an intravenous (IV) injection via the lateral tail vein of 150 μL of [^197m/gHg]HgCl2 (0.492 MBq ^197mHg + 3.171 MBq ^197gHg) or [^197m/gHg]Hg-Tetrathiol (0.899 MBq ^197mHg + 4.230 MBq ^197gHg) in PBS Tween-20 (0.01 M Na Phosphate, 0.15 M NaCl, 0.05% Tween-20).
Mice received an IV injection of [^197m/gHg]HgCl2 (0.275 MBq ^197mHg + 1.758 MBq ^197gHg, 150 μL) or [^197m/gHg]Hg-Tetrathiol (0.384 MBq ^197mHg + 1.733 MBq ^197gHg, 150 μL) (n = 3 per group) via the lateral tail vein using a Tailveiner restrainer. After the injection, the mice were returned to their experimental cages and allowed unrestricted movement. Biodistribution studies were conducted 2 h after administration. Mice were humanely euthanized with an overdose of isoflurane followed by cardiac puncture to collect blood pool activity. The organs of interest were fully extracted, cleaned of blood without rinsing, weighed, and analysed for radioactivity using a calibrated gamma counter with the 55–93 keV energy window for ^197gHg and the 110–160 keV energy window for ^197mHg (Packard Cobra II, Perkin Elmer, Waltham, MA, USA). The stomach and intestines were carefully cleaned prior to analysis to remove residual contents. For tissues and fluids that could not be fully removed (muscle, blood and bone) activity values were extrapolated based on standardised organ weights for age- and sex-matched mice tables to ensure accurate normalization (Davies and Morris [1993]; Foster et al. [2014]). The stomach and whole intestines were cleaned before analysis. The radioactivity measurements were decay corrected for time of injection using the Eqs. (1) and (2). The results are reported as the percentage of the injected activity per gram of tissue (%IA/g) and percentage of the injected activity per tissue (%IA/organ).

[Cl][Hg][Cl] [[^197m/gHg]HgCl2]
Animal 2 (%IA/g) m: bone: 2.79 %IA/g
Animal 2 (%IA/g) m: brain: 0.15 %IA/g
Animal 2 (%IA/g) m: feces: 0.59 %IA/g
Animal 2 (%IA/g) m: heart: 2.24 %IA/g
Animal 2 (%IA/g) m: large intestine: 3.94 %IA/g
Animal 2 (%IA/g) m: liver: 10.33 %IA/g
Animal 2 (%IA/g) m: lungs: 4.50 %IA/g
Animal 2 (%IA/g) m: muscle: 0.74 %IA/g
Animal 2 (%IA/g) m: pancreas: 1.94 %IA/g
Animal 2 (%IA/g) m: small intestine: 4.20 %IA/g
Animal 2 (%IA/g) m: spleen: 4.74 %IA/g
Animal 2 (%IA/g) m: stomach: 2.42 %IA/g
Animal 2 (%IA/g) m: tail: 7.26 %IA/g
Animal 2 (%IA/g) m: urine: 5.31 %IA/g
Animal 3 (%IA/g) m: bladder: 2.14 %IA/g
Animal 3 (%IA/g) m: blood: 5.50 %IA/g
Animal 3 (%IA/g) m: bone: 2.67 %IA/g
Animal 3 (%IA/g) m: brain: 0.17 %IA/g
Animal 3 (%IA/g) m: feces: 3.93 %IA/g
Animal 3 (%IA/g) m: heart: 2.10 %IA/g
Animal 3 (%IA/g) m: large intestine: 3.68 %IA/g
Animal 3 (%IA/g) m: liver: 10.14 %IA/g
Animal 3 (%IA/g) m: lungs: 5.07 %IA/g
Animal 3 (%IA/g) m: muscle: 0.79 %IA/g
Animal 3 (%IA/g) m: pancreas: 2.04 %IA/g
Animal 3 (%IA/g) m: small intestine: 4.50 %IA/g
Animal 3 (%IA/g) m: spleen: 4.18 %IA/g
Animal 3 (%IA/g) m: stomach: 2.28 %IA/g
Animal 3 (%IA/g) m: tail: 7.21 %IA/g
Animal 3 (%IA/g) m: urine: 5.63 %IA/g
Animal 4 (%IA/g) m: bladder: 4.20 %IA/g
Animal 4 (%IA/g) m: blood: 4.96 %IA/g
Animal 4 (%IA/g) m: bone: 2.78 %IA/g
Animal 4 (%IA/g) m: brain: 0.17 %IA/g
Animal 4 (%IA/g) m: feces: 1.53 %IA/g
Animal 4 (%IA/g) m: heart: 2.14 %IA/g
Animal 4 (%IA/g) m: large intestine: 3.97 %IA/g
Animal 4 (%IA/g) m: liver: 10.31 %IA/g
Animal 4 (%IA/g) m: lungs: 4.53 %IA/g
Animal 4 (%IA/g) m: muscle: 0.81 %IA/g
Animal 4 (%IA/g) m: pancreas: 2.24 %IA/g
Animal 4 (%IA/g) m: small intestine: 3.96 %IA/g
Animal 4 (%IA/g) m: spleen: 5.42 %IA/g
Animal 4 (%IA/g) m: stomach: 2.56 %IA/g
Animal 4 (%IA/g) m: tail: 5.98 %IA/g
Animal 4 (%IA/g) m: urine: 5.02 %IA/g
Average Hg-197m (%IA/g): bladder: 3.06 %IA/g
Average Hg-197m (%IA/g): blood: 6.21 %IA/g
Average Hg-197m (%IA/g): bone: 2.92 %IA/g
Average Hg-197m (%IA/g): brain: 0.19 %IA/g
Average Hg-197m (%IA/g): feces: 1.84 %IA/g
Average Hg-197m (%IA/g): heart: 2.58 %IA/g
Average Hg-197m (%IA/g): large intestine: 4.23 %IA/g
Average Hg-197m (%IA/g): liver: 10.26 %IA/g
Average Hg-197m (%IA/g): lungs: 5.70 %IA/g
Average Hg-197m (%IA/g): muscle: 0.93 %IA/g
Average Hg-197m (%IA/g): pancreas: 2.23 %IA/g
Average Hg-197m (%IA/g): small intestine: 4.92 %IA/g
Average Hg-197m (%IA/g): spleen: 5.73 %IA/g
Average Hg-197m (%IA/g): stomach: 2.72 %IA/g
Average Hg-197m (%IA/g): tail: 9.19 %IA/g
Average Hg-197m (%IA/g): urine: 6.03 %IA/g
